# Values joined by “and” are separate entries in the source; they are usually repeats but may differ in a detail not shown here. Equal entries are not always repeated.
# Experiments:
# [1] = tested on: CTL cells (CD45^+CD8^+ T cells) in tumor-infiltrating lymphocytes; test: Example 2: flow cytometry, percentage of CTL cells in TILs; assay type: in vivo, Mus musculus; details: G3: 1 mg/kg; individual mice
# Procedure: (§1) Mice were sacrificed by CO2 euthanasia at the end of the study duration, and the connective tissue around tumor was resected. The tumor samples were then weighed and cut equally into three sections if the tumor weight over 400 mg. The tumor tissue was prepared for the isolation of tumor-infiltrating lymphocytes (TILs). The rest of one section was fixed in 10% formaldehyde and embedded in paraffin; the other was stored at a temperature below −70° C.
# (§2) The tumor samples were dissected into smaller fragments using scalpels and then digested with a cocktail of collagenase, DNase I, and Hyaluronidase (Collagenase #C5138, DNase I #D5025, Hyaluronidase #H6254, SigmaAldrich) for at least 2 hours.
# (§3) Cells were stained with the fluorescently conjugated surface antibodies and incubated for 30 minutes at 4° C., and then resuspended in staining buffer for flow cytometric analysis. Flow cytometry was done using a Navios EX Flow Cytometer (Beckman Coulter). Data were analyzed using the Kaluza Analysis Software (Beckman Coulter).
# [2] = tested on: T helper (TH) cells (CD45^+CD4^+ T cells) in tumor-infiltrating lymphocytes; test: Example 2: flow cytometry, percentage of TH cells in TILs; assay type: in vivo, Mus musculus
# Procedure: as §1, §2, §3
# [3] = G2: OBI-3424 (0.3 mg/kg), group Mean
# [4] = G2: OBI-3424 (0.3 mg/kg), individual animals, 0.3 mg/kg
# [5] = G3: OBI-3424 (1 mg/kg), group Mean
# [6] = G3: OBI-3424 (1 mg/kg), individual animals, 1 mg/kg
smiles,measurement,setting,value
"C[C@H](OP(=O)(N1CC1)N1CC1)c1ccc([N+](=O)[O-])c(Oc2cccc(C(=O)N(C)C)c2)c1 [OBI-3424, (S)-1-(3-(3-N,N-dimethylaminocarbonyl)phenoxyl-4-mtrophenyl)-1-ethyl-N,N′-bis(ethylene)phosphoramidate]",IFN-γ^+ CTL cells (CD45^+ CD8^+ IFN-γ^+) CTL Gated %,[1],0.87% and 0.63% (2×) and 0.85% and 0.20% and 0.61%
same,IFN-γ^+ CTL cells (CD45^+ CD8^+ IFN-γ^+) Cell count (×10^5),[1],0.11 ×10^5 and 0.25 ×10^5 and 0.20 ×10^5 and 0.1 ×10^5 and 0.07 ×10^5 and 0.15 ×10^5
same,IFN-γ^+ CTL cells (CD45^+ CD8^+ IFN-γ^+) Total %,[1],0.39% and 0.20% and 0.28% and 0.14% and 0.09% and 0.18%
same,PD-1^+ CTL cells (CD45^+CD8^+ PD-1^+) CTL Gated %,[1],58.64% and 62.98% and 80.96% and 86.30% and 72.97% and 93.75%
same,PD-1^+ CTL cells (CD45^+CD8^+ PD-1^+) Cell count (×10^5),[1],7.44 ×10^5 and 25.38 ×10^5 and 17.68 ×10^5 and 19.51 ×10^5 and 23.37 ×10^5 and 21.66 ×10^5
same,PD-1^+ CTL cells (CD45^+CD8^+ PD-1^+) Total %,[1],25.64% and 20.11% and 25.04% and 19.75% and 31.41% and 26.74%
same,TH cells (CD45^+CD4^+ T cells) in TILs,"[2]; Example 2, mean±SEM, OBI-3424 1 mg/kg, alone (G3) or with anti-hPD-1 (G6)",25.05±2.08%
same,CD25^+ TH cells (CD45^+CD4^+ CD25^+) Total %,[2]; [3],2.46%
same,CD25^+ TH cells (CD45^+CD4^+CD25^+) Cell count (×10^5),[2]; [3],4.93 ×10^5
same,CD25^+ TH cells (CD45^+CD4^+CD25^+) TH Gated %,[2]; [3],18.22%
same,CD69^+ TH cells (CD45^+CD4^+CD69^+) Cell count (×10^5),[2]; [3],13.89 ×10^5
same,CD69^+ TH cells (CD45^+CD4^+CD69^+) TH Gated %,[2]; [3],60.13%
same,CD69^+ TH cells (CD45^+CD4^+CD69^+) Total %,[2]; [3],8.46%
same,Foxp3^+ Treg cells (CD45^+CD4^+CD25^+Foxp3^+) Cell count (×10^5),[2]; [3],0.24 ×10^5
same,Foxp3^+ Treg cells (CD45^+CD4^+CD25^+Foxp3^+) TH Gated %,[2]; [3],5.27%
same,Foxp3^+ Treg cells (CD45^+CD4^+CD25^+Foxp3^+) Total %,[2]; [3],0.12%
same,PD-1^+ TH cells (CD45^+CD4^+ PD-1^+) Cell count (×10^5),[2]; [3],20.36 ×10^5
same,PD-1^+ TH cells (CD45^+CD4^+ PD-1^+) TH Gated %,[2]; [3],93.96%
same,PD-1^+ TH cells (CD45^+CD4^+ PD-1^+) Total %,[2]; [3],12.11%
same,TH cells (CD45^+CD4^+) CD45^+ Gated %,[2]; [3],33.51%
same,TH cells (CD45^+CD4^+) Cell count (×10^5),[2]; [3],21.50 ×10^5
same,TH cells (CD45^+CD4^+) Total %,[2]; [3],12.88%
same,CD25^+ TH cells (CD45^+CD4^+ CD25^+) Total %,[2]; [4],1.65% and 2.12% and 4.23% and 2.84%
same,CD25^+ TH cells (CD45^+CD4^+CD25^+) Cell count (×10^5),[2]; [4],4.34 ×10^5 and 3.39 ×10^5 and 8.91 ×10^5 and 0.45 ×10^5 and 10.43 ×10^5 and 2.06 ×10^5
same,CD25^+ TH cells (CD45^+CD4^+CD25^+) TH Gated %,[2]; [4],18.38% and 17.49% and 18.21% and 10.15% and 30.45% and 14.61%
same,CD69^+ TH cells (CD45^+CD4^+CD69^+) Cell count (×10^5),[2]; [4],14.86 ×10^5 and 13.89 ×10^5 and 28.08 ×10^5 and 3.35 ×10^5 and 16.93 ×10^5 and 6.24 ×10^5
same,CD69^+ TH cells (CD45^+CD4^+CD69^+) TH Gated %,[2]; [4],63.07% and 71.55% and 57.32% and 49.45% and 44.32%
same,CD69^+ TH cells (CD45^+CD4^+CD69^+) Total %,[2]; [4],7.64% and 6.79% and 5.20% and 15.65% and 6.87% and 8.60%
same,Foxp3^+ Treg cells (CD45^+CD4^+CD25^+Foxp3^+) Cell count (×10^5),[2]; [4],0.21 ×10^5 and 0.27 ×10^5 and 0.43 ×10^5 and 0.03 ×10^5 and 0.39 ×10^5 and 0.08 ×10^5
same,Foxp3^+ Treg cells (CD45^+CD4^+CD25^+Foxp3^+) TH Gated %,[2]; [4],5.03% and 7.95% and 5.08% and 6.05% and 3.69% and 3.81%
same,Foxp3^+ Treg cells (CD45^+CD4^+CD25^+Foxp3^+) Total %,[2]; [4],0.11% (2×) and 0.13% (2×) and 0.08% and 0.16%
same,PD-1^+ TH cells (CD45^+CD4^+ PD-1^+) Cell count (×10^5),[2]; [4],21.12 ×10^5 and 16.11 ×10^5 and 38.56 ×10^5 and 4.30 ×10^5 and 32.19 ×10^5 and 9.90 ×10^5
same,PD-1^+ TH cells (CD45^+CD4^+ PD-1^+) TH Gated %,[2]; [4],98.48% and 81.16% and 94.89% and 90.86% and 99.60% and 98.76%
same,PD-1^+ TH cells (CD45^+CD4^+ PD-1^+) Total %,[2]; [4],10.86% and 7.88% and 7.14% and 20.09% and 13.06% and 13.65%
same,TH cells (CD45^+CD4^+) CD45^+ Gated %,[2]; [4],59.01% and 26.17% and 17.42% and 32.52% and 29.44% and 36.50%
same,TH cells (CD45^+CD4^+) Cell count (×10^5),[2]; [4],21.45 ×10^5 and 19.84 ×10^5 and 40.61 ×10^5 and 4.73 ×10^5 and 32.34 ×10^5 and 10.02 ×10^5
same,TH cells (CD45^+CD4^+) Total %,[2]; [4],11.03% and 9.70% and 7.52% and 22.11% and 13.12% and 13.82%
same,CD25^+ TH cells (CD45^+CD4^+ CD25^+) Total %,[2]; [5],3.32%
same,CD25^+ TH cells (CD45^+CD4^+CD25^+) Cell count (×10^5),[2]; [5],2.83 ×10^5
same,CD25^+ TH cells (CD45^+CD4^+CD25^+) TH Gated %,[2]; [5],13.39%
same,CD69^+ TH cells (CD45^+CD4^+CD69^+) Cell count (×10^5),[2]; [5],12.24 ×10^5
same,CD69^+ TH cells (CD45^+CD4^+CD69^+) TH Gated %,[2]; [5],61.30%
same,CD69^+ TH cells (CD45^+CD4^+CD69^+) Total %,[2]; [5],15.55%
same,Foxp3^+ Treg cells (CD45^+CD4^+CD25^+Foxp3^+) Cell count (×10^5),[2]; [5],0.07 ×10^5
same,Foxp3^+ Treg cells (CD45^+CD4^+CD25^+Foxp3^+) TH Gated %,[2]; [5],3.04%
same,Foxp3^+ Treg cells (CD45^+CD4^+CD25^+Foxp3^+) Total %,[2]; [5],0.09%
same,PD-1^+ TH cells (CD45^+CD4^+ PD-1^+) Cell count (×10^5),[2]; [5],19.54 ×10^5
same,PD-1^+ TH cells (CD45^+CD4^+ PD-1^+) TH Gated %,[2]; [5],97.01%
same,PD-1^+ TH cells (CD45^+CD4^+ PD-1^+) Total %,[2]; [5],24.35%
same,TH cells (CD45^+CD4^+) CD45^+ Gated %,[2]; [5],41.85%
same,TH cells (CD45^+CD4^+) Cell count (×10^5),[2]; [5],20.13 ×10^5
same,TH cells (CD45^+CD4^+) Total %,[2]; [5],25.05%
same,CD25^+ TH cells (CD45^+CD4^+ CD25^+) Total %,[2]; [6],1.46% and 2.88% and 2.69% and 5.06% and 4.55% and 3.26%
same,CD25^+ TH cells (CD45^+CD4^+CD25^+) Cell count (×10^5),[2]; [6],0.42 ×10^5 and 3.63 ×10^5 and 1.90 ×10^5 and 5.00 ×10^5 and 3.39 ×10^5 and 2.64 ×10^5
same,CD25^+ TH cells (CD45^+CD4^+CD25^+) TH Gated %,[2]; [6],5.51% and 11.47% and 14.05% and 20.81% and 18.53% and 9.97%
same,CD69^+ TH cells (CD45^+CD4^+CD69^+) Cell count (×10^5),[2]; [6],4.74 ×10^5 and 19.21 ×10^5 and 9.19 ×10^5 and 10.91 ×10^5 and 12.59 ×10^5 and 16.82 ×10^5
same,CD69^+ TH cells (CD45^+CD4^+CD69^+) TH Gated %,[2]; [6],61.50% and 60.62% and 67.91% and 45.46% and 68.87% and 63.43%
same,CD69^+ TH cells (CD45^+CD4^+CD69^+) Total %,[2]; [6],16.35% and 15.22% and 13.01% and 11.04% and 16.92% and 20.76%
same,Foxp3^+ Treg cells (CD45^+CD4^+CD25^+Foxp3^+) Cell count (×10^5),[2]; [6],0.02 ×10^5 and 0.08 ×10^5 and 0.07 ×10^5 and 0.12 ×10^5 and 0.04 ×10^5 and 0.11 ×10^5
same,Foxp3^+ Treg cells (CD45^+CD4^+CD25^+Foxp3^+) TH Gated %,[2]; [6],4.64% and 2.22% and 3.57% and 2.45% and 1.41% and 3.92%
same,Foxp3^+ Treg cells (CD45^+CD4^+CD25^+Foxp3^+) Total %,[2]; [6],0.07% and 0.06% (2×) and 0.10% and 0.12% and 0.13%
same,PD-1^+ TH cells (CD45^+CD4^+ PD-1^+) Cell count (×10^5),[2]; [6],7.02 ×10^5 and 29.44 ×10^5 and 11.76 ×10^5 and 23.76 ×10^5 and 18.24 ×10^5 and 27.01 ×10^5
same,PD-1^+ TH cells (CD45^+CD4^+ PD-1^+) TH Gated %,[2]; [6],96.86% and 94.38% and 95.57% and 98.57% and 97.07% and 99.62%
same,PD-1^+ TH cells (CD45^+CD4^+ PD-1^+) Total %,[2]; [6],24.22% and 23.33% and 16.66% and 24.05% and 24.52% and 33.34%
same,TH cells (CD45^+CD4^+) CD45^+ Gated %,[2]; [6],37.76% and 41.33% and 35.50% and 40.55% and 38.34% and 57.62%
same,TH cells (CD45^+CD4^+) Cell count (×10^5),[2]; [6],7.25 ×10^5 and 31.20 ×10^5 and 12.31 ×10^5 and 24.11 ×10^5 and 18.79 ×10^5 and 27.11 ×10^5
same,TH cells (CD45^+CD4^+) Total %,[2]; [6],25.00% and 24.72% and 17.44% and 24.40% and 25.26% and 33.47%

# From patent US20240216401A1, “COMBINATION THERAPY BY USING AKR1C3-ACTIVATED COMPOUND WITH IMMUNE CHECKPOINT INHIBITOR” (OBI Pharma, Inc., priority 2021, published 2024)
